# Data: US10059694B2, “2-aminopyrimidine compound and pharmaceutical composition and use thereof” (Shanghai Institute of Materia Medica, Chinese Academy of …, priority 2014, dated 2018)
# How the values were obtained:
# EGFR^T790M/L858R = molecular target: T1, EGFR^T790M/L858R (Homo sapiens, UniProt P00533, L858R/T790M); experiment: kinase inhibitory activity test (ELISA), EGFR^T790M/L858R; assay type: biochemical; conditions: for IC50: ELISA, ATP 5 μM, 1 hour at 37° C.; for kinase inhibitory activity (in words): summary of Table 1
# T1 construct: purchased Millipore
# Experimental: (§1) The enzyme substrate poly (glutamic acid, tyrosine)4:1 (Sigma) was diluted with potassium-free PBS (10 mM sodium phosphate buffer, 150 mM NaCl, pH 7.2-7.4) to 20 μg/mL, plate coated with 125 μL/well, reacted for 12-16 hours at 37° C. After the liquid in the wells was discarded, the plates were washed three times with 200 μL/well of T-PBS (PBS containing 0.1% Tween-20), and each time for 5 minutes, and then dried for 1-2 hours in an oven at 37° C. 50 μL of ATP solution diluted with reaction buffer (50 mM HEPES pH 7.4, 50 mM MgCl2, 5 mM MnCl2, 0.2 mM Na3VO4, 1 mM DTT) was added into each well and the final concentration was 5 μM. The compounds were diluted with 1% DMSO to suitable concentrations and were added at 10 μL/well. […] The above reaction system was reacted for 1 hour at 37° C. shaking table (100 rpm). Control wells with no enzyme and control wells with DMSO solvent were set in each experiment. After the reaction was completed, the plates were washed three times with T-PBS. The anti-phosphotyrosine primary antibody PY99 (Santa Cruz) was added at 100 μL/well and the antibody was diluted with T-PBS containing BSA 5 mg/mL by 1:1000. The mixture was reacted for 0.5 h at 37° C. shaking table, the plates were washed three times with T-PBS. The secondary antibody which was horseradish peroxidase-labeled goat anti-mouse IgG was added at 100 μL/well (the antibody was diluted with T-PBS containing BSA 5 mg/mL by 1:2000). The mixture was reacted for 0.5 h at 37° C. shaking table, the plates were washed three times with T-PBS. 2 l/mL of OPD coloring solution was added at 100 μL/well (diluted with 0.1 M citric acid-sodium citrate buffer (pH=5.4) containing 0.03% H2O2) and dark reacted for 1 to 10 minutes at 25° C. 2 M H2SO4 was added at 50 μL/well to terminate the reaction. Reading was carried out with an adjustable wavelength microplate enzyme-labeled instrument SPECTRA MAX 190 at 490 nm wavelength.
# (§2) The IC50 value was calculated by the four-parameter fitting of the suppression curve.
# [1] = system: human epidermal carcinoma A431 cell line; experiment: SRB proliferation assay, A431 cells; assay type: cell-based; conditions: A-431, SRB, 72 h, read-out: IC50 A431
# Experimental: (§3) Cell lines: human epidermal carcinoma A431 cell line and human non-small cell lung cancer NCI-H1975 cell line was purchased from the American Standard Biology Collection Center (ATCC).
# (§4) Methods: sulforhodamine B (SRB) method, which was as follows: certain number of different tumor cells in logarithmic growth phase were inoculated on 96-well culture plates. After cultured for 24 h to cell adherence, different concentrations of the test compounds of the invention were added. Each concentration was provided with three wells, and a corresponding concentration of DMSO solvent control and a cell-free zeroing well were set. After the cells were treated with the medicine for 72 h, the culture medium was discarded and 100 μL of 10% pre-cooled trichloroacetic acid solution was added to fix the cells. After placed for 1 h at 4° C., it was washed for 5 times with distilled water and dried naturally. Then 100 μL SRB (4 mg/mL) (Sigma) solution was added and stained for 15 min at room temperature. The staining solution was discarded and washed for 5 times with 1% glacial acetic acid and dried. Finally, 150 μL of 10 mM Tris solution (pH 10.5) was added and the OD value was measured at 515 nm with adjustable wavelength microplate enzyme-labeled instrument (VERSAmax™, Molecular Device Corporation, Sunnyvale, Calif., USA).
# EGFR^wt = molecular target: T2, EGFR^wt (Homo sapiens, UniProt P00533); experiment: kinase inhibitory activity test (ELISA), EGFR^WT; assay type: biochemical; conditions: ATP 5 μM, 1 hour at 37° C.
# T2 construct: purchased Millipore
# Experimental: as §1, §2
# [2] = system: human non-small cell lung cancer NCI-H1975 cell line; experiment: SRB proliferation assay, NCI-H1975 cells; assay type: cell-based; conditions: NCI-H1975, SRB, 72 h, read-out: IC50 NCI-H1975
# Experimental: as §3
# as §4, with “USA). […] Based on the inhibitory effect of the 2-aminopyrimidine compounds on the growth of these cells, the half maximal inhibitory concentration (IC50) values were calculated, as shown in Table 2.” for “USA).”
# IGF-1R = molecular target: T3, IGF-1R (Homo sapiens, UniProt P08069); experiment: kinase inhibitory activity test (ELISA), IGF-1R; assay type: biochemical; conditions: ATP 5 μM, 1 hour at 37° C.
# T3 construct: purchased Millipore
# Experimental: The enzyme substrate poly (glutamic acid, tyrosine)4:1 (Sigma) was diluted with potassium-free PBS (10 mM sodium phosphate buffer, 150 mM NaCl, pH 7.2-7.4) to 20 μg/mL, plate coated with 125 μL/well, reacted for 12-16 hours at 37° C. After the liquid in the wells was discarded, the plates were washed three times with 200 μL/well of T-PBS (PBS containing 0.1% Tween-20), and each time for 5 minutes, and then dried for 1-2 hours in an oven at 37° C. 50 μL of ATP solution diluted with reaction buffer (50 mM HEPES pH 7.4, 50 mM MgCl2, 5 mM MnCl2, 0.2 mM Na3VO4, 1 mM DTT) was added into each well and the final concentration was 5 μM. The compounds were diluted with 1% DMSO to suitable concentrations and were added at 10 μL/well. Then different types of tyrosine kinase proteins (including EGFR^wt, EGFR^T790M/L858R and IGF-1R, purchased from Millipore) diluted with 40 μL of reaction buffer were added. The above reaction system was reacted for 1 hour at 37° C. shaking table (100 rpm). Control wells with no enzyme and control wells with DMSO solvent were set in each experiment. After the reaction was completed, the plates were washed three times with T-PBS. The anti-phosphotyrosine primary antibody PY99 (Santa Cruz) was added at 100 μL/well and the antibody was diluted with T-PBS containing BSA 5 mg/mL by 1:1000. The mixture was reacted for 0.5 h at 37° C. shaking table, the plates were washed three times with T-PBS. The secondary antibody which was horseradish peroxidase-labeled goat anti-mouse IgG was added at 100 μL/well (the antibody was diluted with T-PBS containing BSA 5 mg/mL by 1:2000). The mixture was reacted for 0.5 h at 37° C. shaking table, the plates were washed three times with T-PBS. 2 l/mL of OPD coloring solution was added at 100 μL/well (diluted with 0.1 M citric acid-sodium citrate buffer (pH=5.4) containing 0.03% H2O2) and dark reacted for 1 to 10 minutes at 25° C. 2 M H2SO4 was added at 50 μL/well to terminate the reaction. Reading was carried out with an adjustable wavelength microplate enzyme-labeled instrument SPECTRA MAX 190 at 490 nm wavelength.
# as §2
# T2 sequence (P00533 25-1210): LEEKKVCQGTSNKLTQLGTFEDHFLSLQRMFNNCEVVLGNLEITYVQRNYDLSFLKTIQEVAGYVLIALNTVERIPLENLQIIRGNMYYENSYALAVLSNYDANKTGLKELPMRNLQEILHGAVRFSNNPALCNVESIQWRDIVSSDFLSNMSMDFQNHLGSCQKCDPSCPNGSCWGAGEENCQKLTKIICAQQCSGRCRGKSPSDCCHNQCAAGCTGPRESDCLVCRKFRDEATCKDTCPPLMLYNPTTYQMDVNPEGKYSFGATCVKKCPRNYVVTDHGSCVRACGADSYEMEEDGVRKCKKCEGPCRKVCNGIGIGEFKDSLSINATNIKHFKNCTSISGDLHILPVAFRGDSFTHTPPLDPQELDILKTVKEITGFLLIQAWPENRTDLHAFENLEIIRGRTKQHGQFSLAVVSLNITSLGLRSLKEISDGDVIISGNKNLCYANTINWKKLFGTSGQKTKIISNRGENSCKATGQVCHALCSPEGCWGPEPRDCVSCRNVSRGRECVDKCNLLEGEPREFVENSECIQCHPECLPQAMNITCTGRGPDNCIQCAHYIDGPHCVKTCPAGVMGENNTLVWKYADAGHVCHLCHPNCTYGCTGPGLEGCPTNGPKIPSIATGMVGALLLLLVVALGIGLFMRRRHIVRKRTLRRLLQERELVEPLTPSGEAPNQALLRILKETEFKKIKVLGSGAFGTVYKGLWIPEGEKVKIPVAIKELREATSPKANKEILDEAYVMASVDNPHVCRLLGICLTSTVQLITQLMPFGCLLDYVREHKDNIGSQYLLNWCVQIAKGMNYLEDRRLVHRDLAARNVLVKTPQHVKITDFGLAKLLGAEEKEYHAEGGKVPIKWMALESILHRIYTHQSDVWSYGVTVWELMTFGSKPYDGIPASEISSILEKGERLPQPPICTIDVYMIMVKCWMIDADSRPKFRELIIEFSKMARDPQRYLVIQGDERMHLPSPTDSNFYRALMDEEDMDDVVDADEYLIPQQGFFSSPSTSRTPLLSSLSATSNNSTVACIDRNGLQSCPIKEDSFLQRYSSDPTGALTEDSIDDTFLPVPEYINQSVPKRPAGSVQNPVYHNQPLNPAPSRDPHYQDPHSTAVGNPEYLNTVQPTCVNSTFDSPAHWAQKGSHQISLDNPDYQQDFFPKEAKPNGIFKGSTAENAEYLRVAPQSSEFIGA
# T1 sequence (P00533 25-1210 T790M/L858R): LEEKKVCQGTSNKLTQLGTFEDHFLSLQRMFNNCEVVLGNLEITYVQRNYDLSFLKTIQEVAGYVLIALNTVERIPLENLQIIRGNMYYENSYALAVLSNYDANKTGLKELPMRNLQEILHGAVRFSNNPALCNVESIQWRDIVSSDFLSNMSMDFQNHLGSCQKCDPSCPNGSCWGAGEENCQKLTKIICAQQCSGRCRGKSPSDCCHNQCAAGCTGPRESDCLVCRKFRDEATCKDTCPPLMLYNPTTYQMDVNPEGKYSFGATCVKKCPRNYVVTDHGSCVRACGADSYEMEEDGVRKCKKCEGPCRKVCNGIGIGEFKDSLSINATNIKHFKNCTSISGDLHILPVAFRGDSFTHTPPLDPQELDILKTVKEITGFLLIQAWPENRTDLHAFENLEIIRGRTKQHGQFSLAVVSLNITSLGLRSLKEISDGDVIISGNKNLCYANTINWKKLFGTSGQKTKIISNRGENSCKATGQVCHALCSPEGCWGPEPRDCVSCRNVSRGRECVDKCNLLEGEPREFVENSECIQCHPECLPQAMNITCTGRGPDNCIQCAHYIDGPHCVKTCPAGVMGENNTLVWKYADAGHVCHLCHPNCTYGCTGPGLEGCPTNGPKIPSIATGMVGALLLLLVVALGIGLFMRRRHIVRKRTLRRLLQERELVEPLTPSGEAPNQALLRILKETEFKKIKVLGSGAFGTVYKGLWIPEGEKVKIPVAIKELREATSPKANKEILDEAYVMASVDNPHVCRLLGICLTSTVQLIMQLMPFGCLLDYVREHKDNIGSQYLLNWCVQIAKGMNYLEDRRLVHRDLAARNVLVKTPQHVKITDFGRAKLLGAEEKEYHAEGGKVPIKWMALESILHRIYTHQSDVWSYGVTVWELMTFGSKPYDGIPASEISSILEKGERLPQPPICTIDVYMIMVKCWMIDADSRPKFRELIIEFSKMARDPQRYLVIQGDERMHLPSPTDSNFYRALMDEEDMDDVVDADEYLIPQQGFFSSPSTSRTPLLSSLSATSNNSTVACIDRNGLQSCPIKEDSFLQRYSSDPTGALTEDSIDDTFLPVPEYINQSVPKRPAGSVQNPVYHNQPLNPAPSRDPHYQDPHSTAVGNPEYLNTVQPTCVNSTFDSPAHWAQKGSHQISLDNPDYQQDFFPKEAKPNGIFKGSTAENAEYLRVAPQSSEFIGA
# T3 sequence (P08069 31-1367): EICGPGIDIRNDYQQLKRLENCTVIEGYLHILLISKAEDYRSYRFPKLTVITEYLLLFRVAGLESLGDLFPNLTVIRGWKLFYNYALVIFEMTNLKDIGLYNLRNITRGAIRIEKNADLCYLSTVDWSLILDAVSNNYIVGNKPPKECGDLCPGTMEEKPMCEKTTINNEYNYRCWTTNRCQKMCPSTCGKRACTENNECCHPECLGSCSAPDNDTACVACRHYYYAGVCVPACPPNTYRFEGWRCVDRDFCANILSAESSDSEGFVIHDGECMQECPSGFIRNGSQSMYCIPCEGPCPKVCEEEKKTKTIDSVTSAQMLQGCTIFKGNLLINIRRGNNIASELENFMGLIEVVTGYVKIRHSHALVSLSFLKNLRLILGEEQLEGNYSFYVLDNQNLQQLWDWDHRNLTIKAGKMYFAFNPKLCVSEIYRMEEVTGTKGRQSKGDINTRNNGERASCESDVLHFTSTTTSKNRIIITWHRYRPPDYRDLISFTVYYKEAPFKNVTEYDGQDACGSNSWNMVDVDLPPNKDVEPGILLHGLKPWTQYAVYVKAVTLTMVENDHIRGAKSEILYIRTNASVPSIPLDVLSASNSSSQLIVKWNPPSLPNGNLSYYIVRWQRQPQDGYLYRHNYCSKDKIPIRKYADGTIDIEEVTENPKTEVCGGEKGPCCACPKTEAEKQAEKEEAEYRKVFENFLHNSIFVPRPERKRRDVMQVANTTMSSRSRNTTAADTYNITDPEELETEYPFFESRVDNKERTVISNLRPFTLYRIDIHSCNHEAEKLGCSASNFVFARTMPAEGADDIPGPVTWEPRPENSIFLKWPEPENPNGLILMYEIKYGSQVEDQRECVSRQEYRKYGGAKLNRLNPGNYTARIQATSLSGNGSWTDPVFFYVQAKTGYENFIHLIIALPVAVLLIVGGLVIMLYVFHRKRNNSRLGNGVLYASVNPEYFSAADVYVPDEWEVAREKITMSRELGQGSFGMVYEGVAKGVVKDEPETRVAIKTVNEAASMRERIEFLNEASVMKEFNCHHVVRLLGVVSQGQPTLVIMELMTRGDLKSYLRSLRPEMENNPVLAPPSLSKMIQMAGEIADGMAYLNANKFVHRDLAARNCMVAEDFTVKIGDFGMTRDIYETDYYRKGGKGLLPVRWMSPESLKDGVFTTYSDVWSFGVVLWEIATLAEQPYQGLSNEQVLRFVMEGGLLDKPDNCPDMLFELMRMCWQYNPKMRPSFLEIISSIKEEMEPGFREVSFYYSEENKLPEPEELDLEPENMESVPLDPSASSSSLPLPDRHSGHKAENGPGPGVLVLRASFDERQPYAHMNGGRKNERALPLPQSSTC
Structure (SMILES),IC50 (EGFR^T790M/L858R),IC50 [1],IC50 (EGFR^wt),IC50 [2],IC50 (IGF-1R),kinase inhibitory activity (in words) (EGFR^T790M/L858R)
"C=CC(=O)Nc1cc(Nc2ncc(Cl)c(Nc3ccc4ccccc4c3)n2)c(OC)cc1N1CCN(C(C)=O)CC1 [CCB120111, N-((5-((5-chloro-4-((naphthalen-2-yl)amino))pyrimidin-2-yl)amino)-2-(4-acetylpiperazine)-4-methoxyphenyl)acrylamide]",21.5 nM,1100 nM,> 100 nM,51 nM,19.8 nM,–
"C=CC(=O)Nc1cc(Nc2ncc(Cl)c(Nc3ccc4ccccc4c3)n2)c(OC)cc1N1CCN(C)CC1 [CCB120115, N-((5-((5-chloro-4-((naphthalen-2-yl)amino))pyrimidin-2-yl)amino)-2-(4-methylpiperazine)-4-methoxyphenyl)acrylamide]",1.6 nM,2590 nM,40.3 nM,16 nM,28.5 nM,potent
"C=CC(=O)Nc1cc(Nc2ncc(Cl)c(Nc3ccc4ccccc4c3)n2)c(OC)cc1N1CCOCC1 [CCB120117, N-((5-((5-chloro-4-((naphthalen-2-yl)amino))pyrimidin-2-yl)amino)-2-morpholinyl-4-methoxyphenyl)acrylamide]",9.4 nM,> 10000 nM,> 100 nM,272 nM,18.7 nM,–
"C=CC(=O)Nc1cc(Nc2ncc(Cl)c(Nc3ccc4ccccc4c3)n2)c(OC)cc1N1CCCN(C)CC1 [CCB120120, N-((5-((5-chloro-4-((naphthalen-2-yl)amino))pyrimidin-2-yl)amino)-2-(4-methylhomopiperazinyl)-4-methoxyphenyl)acrylamide]",0.6 nM,260 nM,31.7 nM,1 to 16 nM,18.3 nM,potent
"C=CC(=O)Nc1cc(Nc2ncc(Cl)c(Nc3ccc4ccccc4c3)n2)c(OC)cc1N1CCC(N(C)C)CC1 [CCB120121, N-((5-((5 chloro-4-((naphthalen-2-yl)amino))pyrimidin-2-yl)amino)-2-(4-dimethylaminopiperidine)-4-methoxyphenyl)acrylamide]",1.3 nM,324 nM,> 100 nM,4 nM,13.7 nM,–
"C=CC(=O)Nc1cc(Nc2ncc(Cl)c(Nc3ccc4ccccc4c3)n2)c(OC)cc1N1CCC(N(C)C)C1 (stereo not drawn) [CCB120137, N-((5-((5-chloro-4-((naphthalen-2-yl)amino))pyrimidin-2-yl)amino)-2-(3-dimethylaminopyrrolidin-1-yl)-4-methoxyphenyl)acrylamide]",0.3 nM,425 nM,16.8 nM,167 nM,56.4 nM,potent
"C=CC(=O)Nc1cc(Nc2ncc(Cl)c(Nc3ccc4ccccc4c3)n2)c(OC)cc1N1CC(N(C)C)C1 [CCB120138, N-((5-((5-chloro-4-((naphthalen-2-yl)amino))pyrimidin-2-yl)amino)-2-(3-dimethylaminoazetidin-1-yl)-4-methoxyphenyl)acrylamide]",0.6 nM,912 nM,4.3 nM,164 nM,426 nM,–
"COc1ccc(NC(=O)/C=C/CN(C)C)cc1Nc1ncc(Cl)c(Nc2ccc3ncccc3c2)n1 [CCB145213, (E)-N-((3-((5-chloro-4-((quinolin-6-yl)amino))pyrimidin-2-yl)amino)-4-methoxyphenyl)-4-(dimethylamino)-2-butenamide]",43.5 nM,857 nM,615 nM,240 nM,37.1 nM,–
"COc1ccc(NC(=O)/C=C/CN(C)C)cc1Nc1ncc(Cl)c(Nc2cnc3ccccc3c2)n1 [CCB145221, (E)-N-((3-((5-chloro-4-((quinolin-3-yl)amino))pyrimidin-2-yl)amino)-4-methoxyphenyl)-4-(dimethylamino)-2-butenamide]",37.6 nM,646 nM,848 nM,170 nM,12.5 nM,–
"COc1ccc(NC(=O)/C=C/CN(C)C)cc1Nc1ncc(Cl)c(Nc2ccc3[nH]ccc3c2)n1 [CCB145231, (E)-N-((3-((5-chloro-4-((indol-5-yl)amino))pyrimidin-2-yl)amino)-4-methoxyphenyl)-4-(dimethylamino)-2-butenamide]",30.8 nM,615 nM,295 nM,289 nM,38 nM,–
"COc1ccc(NC(=O)/C=C/CN(C)C)cc1Nc1nccc(Nc2ccc3ccccc3c2)n1 [CCB145242, (E)-N-((3-(4-((naphthalen-2-yl)amino)pyrimidin-2-yl)amino)-4-methoxyphenyl)-4-(dimethylamino)-2-butenamide]",56.6 nM,1040 nM,54.1 nM,885 nM,98.5 nM,–
"COc1ccc(NC(=O)/C=C/CN(C)C)cc1Nc1ncc(Cl)c(Oc2ccc3ccccc3c2)n1 [CCB145260, (E)-N-((3-((5-chloro-4-((naphthalen-2-yl)oxy))pyrimidin-2-yl)amino)-4-methoxyphenyl)-4-(dimethylamino)-2-butenamide]",293 nM,17800 nM,> 10000 nM,2040 nM,297 nM,–
